Data set [1] deals with T1, β-lactame receptor (RSA) (Staphylococcus aureus, UniProt P18357).
T1 construct: made in house
T1 sequence (P18357 331-585 limits assumed): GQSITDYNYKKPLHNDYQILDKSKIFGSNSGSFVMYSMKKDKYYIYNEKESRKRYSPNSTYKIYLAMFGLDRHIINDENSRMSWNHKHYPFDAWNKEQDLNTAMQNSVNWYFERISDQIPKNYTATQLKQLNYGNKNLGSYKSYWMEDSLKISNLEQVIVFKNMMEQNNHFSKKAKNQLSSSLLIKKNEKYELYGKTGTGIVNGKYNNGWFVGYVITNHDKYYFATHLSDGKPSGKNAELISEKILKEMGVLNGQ
The class given is binding. The following applies: milk; for Intensity ratio of parameter/control zone: at the detection limit concentration; for Detection limit: Concentration: β-lactames, positive when ratio test/control <= 1. An excerpt:
(§1) For the detection of β-lactames, the reactive mixture comprises the specific receptor for recognising β-lactames, its specific antibody and a preparation of protein A conjugated with colloidal gold. For the detection of tetracyclines, the reactive mixture comprises the receptor of the tetracyclines, its specific antibody, a specific fragment of DNA conjugated with biotin and a preparation of protein A conjugated with colloidal gold.
(§2) The β-lactame receptor is obtained by the method described by Golemi-Kotra et al.^(6) The unpurified receptor is filtered on a Millex HV membrane (Millipore, Inc., USA) before it is stored at 4° C. in the presence of glycerol at 50% v/v.
(§3) This mixture is either prepared as required or lyophilisated for 20 hours. The Recovery System
(§4) The recovery system comprises a nitrocellulose membrane on which are fixed, at distinct points, the elements capable of forming a complex with the recognition molecules of the reactive mixture. These elements are: • for the “beta” signal (for β-lactame), an antibiotic, preferably of penicillin or cephalosporine type, fixed to a molecule with no particular reactivity to protein A, biotin or avidine. […] An egg-white avidine is preferably used.
(§5) In the case of a detection of two parameters, the preparations of β-lactoglobulin and avidine will be deposited on each side of the control line. For example, the β-lactoglobulin conjugate already prepared will be deposited below the control line and the neutralized avidine solution will be deposited above the control line (FIG. 1).
(§6) 200 μL of cold milk are incubated at 50° C. in the presence of 50 μl of the reagents prepared and/or lyophilisated as above. After 3 minutes of incubation at 50° C., the above-described recovery element is immersed in the solution. The final interpretation is made after 3 minutes of incubation by means of an optical dipstick reader available at Matest (Germany);
(§7) As a general rule, when the ratio of the intensities of the concerned test signal relative to the control signal is less than or equal to 1, the sample is considered positive for the parameter (compound) concerned.

Data set [2] has as its target T1, β-lactame receptor (RSA). The class given is binding. The following applies: milk; for Ratio test/control: at the detection limit concentration; for Concentration detection limit: β-lactames, three-parameter test. As for the experimental part: This mixture is prepared either as required or lyophilisated for 20 hours. The Recovery System
The other capture zones are identical but differently positioned, as in FIG. 2.
A single control zone serves as a reference for the three markers.
200 μL of cold milk are incubated at 50° C. in the presence of 50 μl of the reagents prepared and/or lyophilisated as above. After 3 minutes of incubation at 50° C., the above-described recovery element is immersed in the solution. The final interpretation is made after 3 minutes of incubation by means of an optical dipstick reader available at Matest (Germany).
As a general rule, if the ratio of the intensities of the concerned test signal relative to the control signal is less than or equal to 1, the sample is considered as positive for the parameter (compound) concerned.

For data set [3] the following is noted: cited from earlier work; for MRL/EU: maximum residue level, European Union.
Data set [4] has as its system tetracycline receptor (TetR). Put plainly: Example 1 dipstick test in milk, "tetra" capture zone (format 1). In kind it is binding, E. Coli.
Excerpt: In addition, the recovery system is a specific and biotinylated fragment of DNA that can be fixed on a molecule of avidine attached to a nitrocellulose membrane. […] In this case, the fragment of DNA forms a complex with the receptor and a signal generated by the gold particles attached to the receptor appears.
as §1, §2
The DNA fragment is obtained at Eurogentec SA, Belgium according to the sequence and preparation described in patent application WO-A-03/048770. In this precise case, the DNA fragment is not fixed to a capture point on a nitrocellulose membrane but it is directly incorporated into the reactive mixture. This fragment will be recovered in testo by means of its biotinylated end on avidine fixed to a capture point (see below).
as §3, §4, §5, §6, §7

Like-named read-outs stand apart in the source and are kept apart here.

As to `CC1(C)S[C@@H]2[C@H](NC(=O)[C@H](N)c3ccc(O)cc3)C(=O)N2[C@H]1C(=O)O` [Amoxicillin], at β-lactame receptor (RSA) [1], the “Intensity ratio of parameter/control zone” value was determined as 0.4 and the “Detection limit: Concentration” value came to 4 ppb. For the same compound, at β-lactame receptor (RSA) [2], the Ratio test/control worked out at 0.4 and the Concentration detection limit amounted to 4 ppb. For the same compound, in data set [3], the “Safe level/US” value is 10 ppb and the MRL/EU is 4 ppb.
For `CC1(C)S[C@@H]2[C@H](NC(=O)[C@H](N)c3ccccc3)C(=O)N2[C@H]1C(=O)O` [Ampicillin], the “Intensity: zone B” value on β-lactame receptor (RSA) [1] (Ampi 1 ppb) was 380; on β-lactame receptor (RSA) [1] (Ampi 2 ppb), 250; on β-lactame receptor (RSA) [1] (Ampi 3 ppb) it was 155; at β-lactame receptor (RSA) [1] (Ampi 4 ppb + Tetra 75 ppb together), 122; at β-lactame receptor (RSA) [1] (Ampi 4 ppb), 105; on β-lactame receptor (RSA) [1] (Ampi 5 ppb), 55. For the same compound, the “Intensity: zone B” value at β-lactame receptor (RSA) [1] (Ampi 10 ppb) came to 25. In addition, on β-lactame receptor (RSA) [1], the “Detection limit: Concentration” value is on record as 4 ppb. For the same compound, the “Intensity: zone T” value in data set [4] (Ampi 1 ppb) is recorded as 380; in data set [4] (Ampi 2 ppb), 405; in data set [4] (Ampi 3 ppb), 408; in data set [4] (Ampi 4 ppb), 386; in data set [4] (Ampi 5 ppb), 397; in data set [4] (Ampi 10 ppb) it was 414. The compound further gave a Concentration detection limit on β-lactame receptor (RSA) [2] of 4 ppb.
Turning to `CC1(C)S[C@@H]2[C@H](NC(=O)Cc3ccccc3)C(=O)N2[C@H]1C(=O)O` [Benzylpenicillin], at β-lactame receptor (RSA) [1], the “Detection limit: Concentration” value amounted to 2 ppb. This compound had a Concentration detection limit at β-lactame receptor (RSA) [2] of 2 ppb.
In the case of `CO/N=C(\C(=O)N[C@@H]1C(=O)N2C(C(=O)O)=C(CSC(=O)c3ccco3)CS[C@H]12)c1csc(N)n1` [Ceftiofur], on β-lactame receptor (RSA) [1], the “Intensity ratio of parameter/control zone” value was 0.5 and the “Detection limit: Concentration” value was 10 ppb. Further, at β-lactame receptor (RSA) [2], the Ratio test/control is on record as 0.5 and the Concentration detection limit was determined as 10 ppb. Also, in data set [3], the “Safe level/US” value was 50 ppb and the MRL/EU was 100 ppb.
Turning to `CC(=O)OCC1=C(C(=O)O)N2C(=O)[C@@H](NC(=O)CSc3ccncc3)[C@H]2SC1` [Cephapyrin], at β-lactame receptor (RSA) [1], the “Intensity ratio of parameter/control zone” value is reported as 0.3 and the “Detection limit: Concentration” value is 8 ppb. Also, at β-lactame receptor (RSA) [2], the Ratio test/control is 0.3 and the Concentration detection limit is 8 ppb. Besides, in data set [3], the “Safe level/US” value is 20 ppb and the MRL/EU is on record as 60 ppb.
Turning to `CN(C)[C@@H]1C(O)=C(C(N)=O)C(=O)[C@@]2(O)C(O)=C3C(=O)c4c(O)ccc(Cl)c4[C@@](C)(O)[C@H]3C[C@@H]12` [Chlortetracycline], in data set [3], the “Safe level/US” value is 300 ppb and the MRL/EU is on record as 100 ppb.
`C[C@H]1c2cccc(O)c2C(=O)C2=C(O)[C@]3(O)C(=O)C(C(N)=O)=C(O)[C@@H](N(C)C)[C@@H]3[C@@H](O)[C@@H]21` [Doxycycline]: in data set [3], the “Safe level/US” value is reported as 300 ppb and the MRL/EU is 100 ppb.
Take `CN(C)[C@@H]1C(O)=C(C(N)=O)C(=O)[C@@]2(O)C(O)=C3C(=O)c4c(O)cccc4[C@@](C)(O)[C@H]3[C@H](O)[C@@H]12` [Oxytetracycline]: in data set [3], the “Safe level/US” value is listed as 300 ppb and the MRL/EU is 100 ppb.
As for `CN(C)[C@@H]1C(O)=C(C(N)=O)C(=O)[C@@]2(O)C(O)=C3C(=O)c4c(O)cccc4[C@@](C)(O)[C@H]3C[C@@H]12` [Tetracycline], in data set [3], the “Safe level/US” value is given as 300 ppb and the MRL/EU is 100 ppb.
Take Cloxacycline: at β-lactame receptor (RSA) [1], the “Intensity ratio of parameter/control zone” value was 0.5 and the “Detection limit: Concentration” value was 10 ppb. For the same compound, on β-lactame receptor (RSA) [2], the Ratio test/control is given as 0.5 and the Concentration detection limit amounted to 10 ppb. Further, in data set [3], the “Safe level/US” value was 10 ppb and the MRL/EU is given as 30 ppb.

These data come from patent publication US7998754B2, “In vitro method for the simultaneous detection and identification of antibiotics of different classes and corresponding diagnostic kit” (Unisensor S.A., priority 2005, dated 2011).
